Laboratory results as given in US20160145242A1, “PHENYLIMIDAZOLE DERIVATIVE, AND THERAPEUTIC MEDICINE OR PREVENTIVE MEDICINE FOR INFLAMMATORY DISEASE, ETC” (NIPPON SODA CO., LTD., priority 2013, published 2016).
Read-outs that look alike come from different tables or passages of the source.

Experiments:
[1] = tested on: human recombinant MAP kinase 1; assay: MAP kinase 1 activity inhibitory action; format: biochemical; conditions: 3 μM
Experimental: The inhibitory action of the compound of the present invention with respect to the activity of the present enzyme was examined using human recombinant MAP kinase 1.
The human recombinant MAP kinase 1 was reacted with 50.0 μg/mL of myelin basic protein and the amount of ^32P phosphorylated myelin basic protein which was a reaction product was measured by a radioactivity measurement method. 3 μM of the compound according to the present invention dissolved in dimethyl sulfoxide was added to the reaction system and the inhibition rate of ^32P phosphorylated myelin basic protein generation (MAP kinase 1 activity inhibition rate) was measured.

[2] = biological target: T1, guinea pig lung-derived leukotriene C4 synthase (Cavia porcellus, UniProt A6XA80); assay: Leukotriene C4 synthase activity inhibitory action; format: biochemical; conditions: read-out: leukotriene C4 synthase activity inhibition rate
T1 construct: guinea pig lung-derived leukotriene C4 synthase; from tissue; host or cells: Dunkin-Hartley guinea pig lung
T1 sequence (A6XA80 1-150): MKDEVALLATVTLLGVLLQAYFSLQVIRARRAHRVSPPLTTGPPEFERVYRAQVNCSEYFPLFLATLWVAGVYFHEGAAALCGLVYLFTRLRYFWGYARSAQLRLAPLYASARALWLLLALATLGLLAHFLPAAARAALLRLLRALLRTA
Experimental: The inhibitory action according to the compound of the present invention with respect to the activity of the present enzyme was examined using guinea pig lung-derived leukotriene C4 synthase.
Dunkin-Hartley guinea pig lung-derived leukotriene C4 synthase was reacted with 2.50 μg/mL of leukotriene A4 and the amount of leukotriene C4 which was a reaction product was measured by an enzyme-linked immunosorbent assay. 3 μM of the compound of the present invention dissolved in dimethyl sulfoxide was added to the reaction system and the inhibition rate of leukotriene C4 generation (leukotriene C4 synthase activity inhibition rate) was measured.

CYP3A4 = biological target: T2, CYP3A4 (Homo sapiens, UniProt P08684); assay: Cytochrome P450 inhibitory action, CYP3A4 in human liver microsomes; format: in vitro ADME; conditions: for inhibition at 10 min, 10 µM: pooled human liver microsomes, read-out: inhibition rate in the shown concentration
T2 construct: Using human liver microsomes pooled as an enzyme source; from tissue; host or cells: pooled human liver microsomes
T2 sequence (P08684 whole entry): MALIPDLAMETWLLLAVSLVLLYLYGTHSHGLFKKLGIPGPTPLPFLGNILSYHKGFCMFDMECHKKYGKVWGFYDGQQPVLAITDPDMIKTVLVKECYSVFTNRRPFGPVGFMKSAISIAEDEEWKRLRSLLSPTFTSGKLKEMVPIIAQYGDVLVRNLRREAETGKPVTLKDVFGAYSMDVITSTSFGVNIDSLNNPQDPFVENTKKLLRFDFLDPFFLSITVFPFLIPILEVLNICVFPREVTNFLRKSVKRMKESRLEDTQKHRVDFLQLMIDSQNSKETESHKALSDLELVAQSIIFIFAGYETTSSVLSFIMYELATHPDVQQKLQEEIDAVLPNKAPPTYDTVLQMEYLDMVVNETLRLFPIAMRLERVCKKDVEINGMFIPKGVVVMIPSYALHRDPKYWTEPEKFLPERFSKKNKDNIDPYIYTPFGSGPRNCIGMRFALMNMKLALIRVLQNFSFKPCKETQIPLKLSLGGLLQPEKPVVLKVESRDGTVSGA
Experimental: An inhibitory action of the compound of the present invention with respect to CYP2D6 (dextromethorphan was used as a substrate) and CYP3A4 (midazolam and testosterone were used as substrates) which are isozymes of cytochrome P450 (hereinafter, referred to as “CYP”) serving as a major drug-metabolizing enzyme was examined using human liver microsomes.
Using human liver microsomes pooled as an enzyme source, 1.3 mM NADP as a coenzyme, 3.3 mM D-glucose-6-phosphate, and 0.4 U/mL D-glucose-6-phosphate dehydrogenase, the corresponding substrate ([…] dextromethorphan for CYP2D6, 5 μM midazolam or 50 µM testosterone for CYP3A4) and the compound of the present invention were added such that the final concentration became 0.1, 1, 10 μM and then incubated at 37° C. for 10 minutes. The inhibition rate (%) of the compound of the present invention in each concentration was calculated by quantifying metabolites (CYP2D6; dextrorphan, CYP3A4; 1-hydroxymidazolam or 6β hydroxytestosterone) using HPLC-MS/MS and setting the value of the activity of an enzyme when drug was not incorporated therein as 100%. 50% inhibitory concentration IC50 (μM) was calculated by drawing a straight line between the concentration where the inhibition rate exceeds 50% and the concentration where the inhibition rate is less than 50% in a graph showing a relationship between the inhibition rate and the concentration and interpolating the concentration that becomes 50% inhibition.

[3] = tested on: guinea pig liver microsome-derived lipid peroxidase; assay: Lipid peroxidase activity inhibitory action; format: biochemical; conditions: 3 μM
Experimental: The inhibitory action of the compound according to the present invention with respect to the activity of the present enzyme was examined using guinea pig liver microsome-derived lipid peroxidase.
Dunkin-Hartley guinea pig lung-derived lipid peroxidase was reacted with 0.25 M of polyvalent unsaturated fatty acids and the amount of malondialdehyde which was a reaction product was measured by an absorbance determination method. 3 μM of the compound according to the present invention dissolved in dimethyl sulfoxide was added to the reaction system and the inhibition rate of malondialdehyde generation (lipid peroxidase activity inhibition rate) was measured.

Question: Which “MAP kinase 1 activity inhibition rate” value [1] does the source give for `CC(=O)N1CCN(c2ccc(N)c(-n3ccnc3)c2)CC1` [Compound 1-1, 4-acetyl-1-(4-amino-3-imidazole-1-yl-phenyl)piperazine] here?
Answer: 13%

Question: And the inhibition at 3 µM [2]?
Answer: 27%

Question: And the inhibition at 10 min, 10 µM (CYP3A4; probe midazolam (5 μM), substrate midazolam)?
Answer: 28%

Question: What about the inhibition at 10 min, 10 µM (CYP3A4; probe testosterone (50 M [sic]), substrate testosterone) of the same molecule?
Answer: 6%

Question: And the IC50 (CYP3A4; substrate midazolam)?
Answer: > 10 µM

Question: And the IC50 (CYP3A4; substrate testosterone)?
Answer: > 10 µM

Question: What about the “lipid peroxidase activity inhibition rate” value [3] of the same molecule?
Answer: 13%
